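Cells were grown in 96-well plates and exposed to each compound for 48 hours at five concentrations; endpoints were interpolated linearly between bracketing concentrations, or set to the highest concentration if not reached. GI50 marks 50% less growth. TGI is the concentration that stops growth completely.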
Tests used:
Test in all cases: NCI-60 cell line screen, 48 h
SF-295 CNS = tested on: SF-295 CNS
MCF7 breast = tested on: MCF7 breast
UACC-257 melanoma = tested on: UACC-257 melanoma
UACC-62 melanoma = tested on: UACC-62 melanoma
HOP-62 NSCLC = tested on: HOP-62 NSCLC
NCI-H226 lung = tested on: NCI-H226 lung
SNB-19 CNS = tested on: SNB-19 CNS
SW-620 colon = tested on: SW-620 colon
SK-MEL-2 melanoma = tested on: SK-MEL-2 melanoma
KM12 colon = tested on: KM12 colon

SMILES	TGI (SF-295 CNS)	TGI (MCF7 breast)	TGI (UACC-257 melanoma)	TGI (UACC-62 melanoma)	TGI (HOP-62 NSCLC)	TGI (NCI-H226 lung)	TGI (SNB-19 CNS)	TGI (SW-620 colon)	TGI (SK-MEL-2 melanoma)	TGI (KM12 colon)	GI50 (SF-295 CNS)	GI50 (MCF7 breast)	GI50 (UACC-257 melanoma)	GI50 (UACC-62 melanoma)	GI50 (HOP-62 NSCLC)	GI50 (NCI-H226 lung)	GI50 (SNB-19 CNS)	GI50 (SW-620 colon)	GI50 (SK-MEL-2 melanoma)	GI50 (KM12 colon)
COC(=O)c1ccc2c(c1)C(NC(C)=O)CCc1cc(OC)c(OC)c(OC)c1-2 (stereo not given)	3.03 µM	> 100 µM	> 100 µM	> 100 µM	52.4 µM	1.17 µM	> 86.9 µM	> 100 µM	6.58 µM	0.219 µM	–	–	–	–	–	–	–	–	–	–
CCOC(=O)c1c(NC(=O)c2ccc(C(C)C)cc2)sc2c(CN(C)C)c(O)ccc12	3.45 µM	3.77 µM	4.61 µM	3.48 µM	5.89 µM	6.48 µM	5.3 µM	3.41 µM	4.59 µM	3.45 µM	1.86 µM	1.75 µM	2.12 µM	1.82 µM	2.2 µM	2.19 µM	2.36 µM	1.7 µM	2.14 µM	1.83 µM
Cn1cc(C2=C(c3cn(C)c4ccc(N)cc34)C(=O)NC2=O)c2ccccc21	> 22.2 µM	> 25 µM	> 25 µM	> 25 µM	> 25 µM	> 25 µM	> 25 µM	> 25 µM	> 25 µM	> 25 µM	6.83 µM	4.76 µM	> 25 µM	13.1 µM	9.59 µM	> 17.6 µM	> 25 µM	5 µM	8.46 µM	6.4 µM
N/C(=N\OC(=O)c1ccccc1)C(C(=O)NOC(=O)c1ccccc1)C1CCCCC1 (stereo not given)	5.73 µM	23 µM	28.7 µM	32.9 µM	9.09 µM	34.1 µM	39.1 µM	27.7 µM	26.6 µM	25.1 µM	2.11 µM	8.22 µM	13.7 µM	11.4 µM	2.87 µM	15.8 µM	15.4 µM	11.5 µM	12.5 µM	11.4 µM
CCN(c1ccc(CO)c(Cl)c1)C(C)c1ccc(F)cc1 (stereo not given)	24.3 µM	27.1 µM	12.8 µM	16.9 µM	30.2 µM	2.31 µM	30.5 µM	30.2 µM	28 µM	32.5 µM	11.5 µM	12.5 µM	2.8 µM	3.79 µM	16.2 µM	0.49 µM	16 µM	14.1 µM	13.2 µM	17 µM
O=C(O)c1cc[c]([Hg][S]c2ncnc3nc[nH]c23)cc1	> 100 µM	> 38.9 µM	22.9 µM	15.4 µM	26.1 µM	> 68 µM	> 100 µM	23.5 µM	19.4 µM	> 50.1 µM	11.7 µM	2.6 µM	10.4 µM	2.88 µM	10.7 µM	> 39 µM	> 76.7 µM	11.4 µM	4.83 µM	14.3 µM
COc1ccc(-c2cc(-c3ccc(Cl)cc3)c(C#N)c(=O)n2CCCCC(=O)Nc2ccccc2N)cc1	5.96 µM	> 100 µM	> 100 µM	13 µM	> 100 µM	70.9 µM	> 100 µM	> 100 µM	37.8 µM	> 100 µM	2.33 µM	4.03 µM	4.48 µM	3.29 µM	12.7 µM	6.26 µM	22.2 µM	12.6 µM	9.05 µM	5.17 µM
COc1ccc(C2SC(N)=Nc3c2c(C)nn3C(=O)c2ccc(Cl)cc2)cc1OC (stereo not given)	> 10 µM	> 10 µM	> 10 µM	> 10 µM	> 10 µM	> 10 µM	> 10 µM	> 10 µM	> 10 µM	> 10 µM	–	–	–	–	–	–	–	–	–	–
CNC(=O)Nc1ccc(-c2nc(N3CCOCC3)nc3c2cnn3C2CCOCC2)cc1	0.585 µM	> 100 µM	1.4 µM	1.19 µM	4.38 µM	4.26 µM	> 100 µM	> 100 µM	3.56 µM	> 100 µM	0.0716 µM	0.0784 µM	0.184 µM	0.182 µM	0.23 µM	0.125 µM	0.396 µM	0.332 µM	0.382 µM	0.384 µM
Cc1ccc(C(=O)/C(=C/c2ccc([N+](=O)[O-])cc2)S(=O)Cc2ccccc2)cc1 (stereo not given)	5.96 µM	2.2 µM	3.08 µM	2.79 µM	4.46 µM	4.72 µM	3.07 µM	2.94 µM	3.26 µM	3.4 µM	2.45 µM	0.372 µM	1.65 µM	1.3 µM	2.02 µM	1.71 µM	1.55 µM	0.916 µM	1.57 µM	1.56 µM
CSc1ccc(C2=Nn3c(nnc3-c3ccc(F)c(Cl)c3)SC2)cc1	17.5 µM	25.8 µM	> 100 µM	8.19 µM	19.5 µM	75.7 µM	32.7 µM	> 100 µM	18 µM	45.1 µM	3.57 µM	7.54 µM	67.6 µM	2.04 µM	5.84 µM	18.4 µM	10.7 µM	11.6 µM	4.77 µM	7.78 µM
CCN(CC)c1ccc(NC(=S)NN(C)C)cc1	> 10 µM	> 10 µM	> 10 µM	> 10 µM	> 10 µM	> 10 µM	> 10 µM	> 10 µM	> 10 µM	> 10 µM	–	–	–	–	–	–	–	–	–	–

From PubChem BioAssay (NCI)
